Assay results as given in patent publication US11980188B2, “Spiro cyclohexanedione derivates as herbicides” (SYNGENTA PARTICIPATIONS AG, priority 2018, dated 2024).

Tests used:
Test in all cases: Glasshouse herbicide test, pre- and post-emergence, percentage damage
Type in all cases: in vivo
[1] = system: Alopecurus myosuroides (ALOMY); settings: 250 g/h, evaluated after 13 days, percentage damage on five point scale; for ALOMY POST: post-emergence; for ALOMY PRE: pre-emergence
Outline: (§1)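 Pot-grown grass weeds in standard soil were sprayed 1 day after sowing (pre-emergence) or after 8 days (post-emergence) with compound at 250 g/h in acetone/water (50:50) with 0.5% Tween 20. Glasshouse conditions were 24/16 °C day/night, 14 h light, 65% humidity. Damage was scored after 13 days on a five-point scale.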

Avena fatua (AVEFA) = settings: 250 g/h, evaluated after 13 days, percentage damage on five point scale; for AVEFA POST: post-emergence; for AVEFA PRE: pre-emergence
Outline: as §1

[2] = system: Echinochloa crus-galli (ECHCG); settings: 250 g/h, evaluated after 13 days, percentage damage on five point scale; for ECHCG POST: post-emergence; for ECHCG PRE: pre-emergence
Outline: as §1

Lolium perenne (LOLPE) = settings: 250 g/h, evaluated after 13 days, percentage damage on five point scale; for LOLPE POST: post-emergence; for LOLPE PRE: pre-emergence
Outline: as §1

Setaria faberi (SETFA) = settings: 250 g/h, evaluated after 13 days, percentage damage on five point scale; for SETFA POST: post-emergence; for SETFA PRE: pre-emergence
Outline: as §1

SMILES: CC(=O)N1CCC2(CC1)CC(=O)C(c1c(C)cc(-c3ccc(F)cn3)cc1C)C(=O)C2 [Compound A46]
- ALOMY POST [1]: 5 (5=80-100%)
- ALOMY PRE [1]: 5 (5=80-100%)
- AVEFA POST (Avena fatua (AVEFA)): 5 (5=80-100%)
- AVEFA PRE (Avena fatua (AVEFA)): 5 (5=80-100%)
- ECHCG POST [2]: 5 (5=80-100%)
- ECHCG PRE [2]: 5 (5=80-100%)
- LOLPE POST (Lolium perenne (LOLPE)): 5 (5=80-100%)
- LOLPE PRE (Lolium perenne (LOLPE)): 5 (5=80-100%)
- SETFA POST (Setaria faberi (SETFA)): 5 (5=80-100%)
- SETFA PRE (Setaria faberi (SETFA)): 5 (5=80-100%)

SMILES: CC(=O)N1CCC2(CC1)CC(=O)C(c1c(C)cc(-n3cc(F)cn3)cc1C)C(=O)C2 [Compound A47]
- ALOMY POST [1]: 5 (5=80-100%)
- ALOMY PRE [1]: 2 (2=20-39%)
- AVEFA POST (Avena fatua (AVEFA)): 5 (5=80-100%)
- AVEFA PRE (Avena fatua (AVEFA)): 4 (4=60-79%)
- ECHCG POST [2]: 1 (1=0-19%)
- ECHCG PRE [2]: 3 (3=40-59%)
- LOLPE POST (Lolium perenne (LOLPE)): 5 (5=80-100%)
- LOLPE PRE (Lolium perenne (LOLPE)): 4 (4=60-79%)
- SETFA POST (Setaria faberi (SETFA)): 5 (5=80-100%)
- SETFA PRE (Setaria faberi (SETFA)): 4 (4=60-79%)

SMILES: CC(=O)N1CCC2(CC1)CC(=O)C(c1c(C)cc(-c3ncc(F)cc3F)cc1C)C(=O)C2 [Compound A48]
- ALOMY POST [1]: 5 (5=80-100%)
- ALOMY PRE [1]: 5 (5=80-100%)
- AVEFA POST (Avena fatua (AVEFA)): 5 (5=80-100%)
- AVEFA PRE (Avena fatua (AVEFA)): 5 (5=80-100%)
- ECHCG POST [2]: 5 (5=80-100%)
- ECHCG PRE [2]: 5 (5=80-100%)
- LOLPE POST (Lolium perenne (LOLPE)): 5 (5=80-100%)
- LOLPE PRE (Lolium perenne (LOLPE)): 5 (5=80-100%)
- SETFA POST (Setaria faberi (SETFA)): 5 (5=80-100%)
- SETFA PRE (Setaria faberi (SETFA)): 5 (5=80-100%)

SMILES: CC(=O)N1CCC2(CC1)CC(=O)C(c1c(C)cc(-c3ccc(Cl)cc3)cc1C)C(=O)C2 [Compound A49]
- ALOMY POST [1]: 5 (5=80-100%)
- ALOMY PRE [1]: 5 (5=80-100%)
- AVEFA POST (Avena fatua (AVEFA)): 5 (5=80-100%)
- AVEFA PRE (Avena fatua (AVEFA)): 5 (5=80-100%)
- ECHCG POST [2]: 5 (5=80-100%)
- ECHCG PRE [2]: 5 (5=80-100%)
- LOLPE POST (Lolium perenne (LOLPE)): 5 (5=80-100%)
- LOLPE PRE (Lolium perenne (LOLPE)): 5 (5=80-100%)
- SETFA POST (Setaria faberi (SETFA)): 5 (5=80-100%)
- SETFA PRE (Setaria faberi (SETFA)): 5 (5=80-100%)

SMILES: CC(=O)N1CCC2(CC1)CC(=O)C(c1c(C)cc(-c3ncc(Cl)cc3F)cc1C)C(=O)C2 [Compound A50]
- ALOMY POST [1]: 5 (5=80-100%)
- ALOMY PRE [1]: 5 (5=80-100%)
- AVEFA POST (Avena fatua (AVEFA)): 5 (5=80-100%)
- AVEFA PRE (Avena fatua (AVEFA)): 5 (5=80-100%)
- ECHCG POST [2]: 5 (5=80-100%)
- ECHCG PRE [2]: 5 (5=80-100%)
- LOLPE POST (Lolium perenne (LOLPE)): 5 (5=80-100%)
- LOLPE PRE (Lolium perenne (LOLPE)): 5 (5=80-100%)
- SETFA POST (Setaria faberi (SETFA)): 5 (5=80-100%)
- SETFA PRE (Setaria faberi (SETFA)): 5 (5=80-100%)

SMILES: CC(=O)N1CCC2(CC1)CC(=O)C(c1c(C)cc(-c3ncc(Cl)cn3)cc1C)C(=O)C2 [Compound A51]
- ALOMY POST [1]: 5 (5=80-100%)
- ALOMY PRE [1]: 5 (5=80-100%)
- AVEFA POST (Avena fatua (AVEFA)): 5 (5=80-100%)
- AVEFA PRE (Avena fatua (AVEFA)): 5 (5=80-100%)
- ECHCG POST [2]: 5 (5=80-100%)
- ECHCG PRE [2]: 5 (5=80-100%)
- LOLPE POST (Lolium perenne (LOLPE)): 5 (5=80-100%)
- LOLPE PRE (Lolium perenne (LOLPE)): 5 (5=80-100%)
- SETFA POST (Setaria faberi (SETFA)): 5 (5=80-100%)
- SETFA PRE (Setaria faberi (SETFA)): 5 (5=80-100%)

SMILES: CC(=O)N1CCC2(CC1)CC(=O)C(c1c(C)cc(-c3ncc(C#N)cn3)cc1C)C(=O)C2 [Compound A52]
- ALOMY POST [1]: 5 (5=80-100%)
- ALOMY PRE [1]: 5 (5=80-100%)
- AVEFA POST (Avena fatua (AVEFA)): 5 (5=80-100%)
- AVEFA PRE (Avena fatua (AVEFA)): 5 (5=80-100%)
- ECHCG POST [2]: 5 (5=80-100%)
- ECHCG PRE [2]: 5 (5=80-100%)
- LOLPE POST (Lolium perenne (LOLPE)): 5 (5=80-100%)
- LOLPE PRE (Lolium perenne (LOLPE)): 5 (5=80-100%)
- SETFA POST (Setaria faberi (SETFA)): 5 (5=80-100%)
- SETFA PRE (Setaria faberi (SETFA)): 5 (5=80-100%)

SMILES: CCS(=O)(=O)N1CCC2(CC1)CC(=O)C(c1c(C)cc(-c3ccc(F)cc3)cc1C)C(=O)C2 [Compound A53]
- ALOMY PRE [1]: 5 (5=80-100%)
- AVEFA POST (Avena fatua (AVEFA)): 5 (5=80-100%)
- AVEFA PRE (Avena fatua (AVEFA)): 4 (4=60-79%)
- ECHCG POST [2]: 3 (3=40-59%)
- ECHCG PRE [2]: 5 (5=80-100%)
- LOLPE POST (Lolium perenne (LOLPE)): 5 (5=80-100%)
- LOLPE PRE (Lolium perenne (LOLPE)): 5 (5=80-100%)
- SETFA POST (Setaria faberi (SETFA)): 5 (5=80-100%)
- SETFA PRE (Setaria faberi (SETFA)): 5 (5=80-100%)

SMILES: Cc1cc(-c2ccc(F)cc2)cc(C)c1C1C(=O)CC2(CCN(C(=O)c3ccccc3)CC2)CC1=O [Compound A54]
- ALOMY PRE [1]: 5 (5=80-100%)
- AVEFA POST (Avena fatua (AVEFA)): 5 (5=80-100%)
- AVEFA PRE (Avena fatua (AVEFA)): 5 (5=80-100%)
- ECHCG POST [2]: 5 (5=80-100%)
- ECHCG PRE [2]: 5 (5=80-100%)
- LOLPE POST (Lolium perenne (LOLPE)): 5 (5=80-100%)
- LOLPE PRE (Lolium perenne (LOLPE)): 5 (5=80-100%)
- SETFA POST (Setaria faberi (SETFA)): 5 (5=80-100%)
- SETFA PRE (Setaria faberi (SETFA)): 5 (5=80-100%)

SMILES: Cc1cc(-c2ccc(F)cc2)cc(C)c1C1C(=O)CC2(CCN(C(=O)c3ccccn3)CC2)CC1=O [Compound A55]
- ALOMY PRE [1]: 5 (5=80-100%)
- AVEFA POST (Avena fatua (AVEFA)): 5 (5=80-100%)
- AVEFA PRE (Avena fatua (AVEFA)): 5 (5=80-100%)
- ECHCG POST [2]: 5 (5=80-100%)
- ECHCG PRE [2]: 5 (5=80-100%)
- LOLPE POST (Lolium perenne (LOLPE)): 5 (5=80-100%)
- LOLPE PRE (Lolium perenne (LOLPE)): 5 (5=80-100%)
- SETFA POST (Setaria faberi (SETFA)): 5 (5=80-100%)
- SETFA PRE (Setaria faberi (SETFA)): 5 (5=80-100%)

SMILES: COCC(=O)N1CCC2(CC1)CC(=O)C(c1c(C)cc(-c3ccc(F)cc3)cc1C)C(=O)C2 [Compound A56]
- ALOMY PRE [1]: 5 (5=80-100%)
- AVEFA POST (Avena fatua (AVEFA)): 5 (5=80-100%)
- AVEFA PRE (Avena fatua (AVEFA)): 5 (5=80-100%)
- ECHCG POST [2]: 5 (5=80-100%)
- ECHCG PRE [2]: 5 (5=80-100%)
- LOLPE POST (Lolium perenne (LOLPE)): 5 (5=80-100%)
- LOLPE PRE (Lolium perenne (LOLPE)): 5 (5=80-100%)
- SETFA POST (Setaria faberi (SETFA)): 5 (5=80-100%)
- SETFA PRE (Setaria faberi (SETFA)): 5 (5=80-100%)

SMILES: Cc1cc(-c2ccc(F)cc2)cc(C)c1C1C(=O)CC2(CCN(C(=O)NC(=O)C(C)(C)C)CC2)CC1=O [Compound A58]
- ALOMY PRE [1]: 5 (5=80-100%)
- AVEFA POST (Avena fatua (AVEFA)): 5 (5=80-100%)
- AVEFA PRE (Avena fatua (AVEFA)): 4 (4=60-79%)
- ECHCG POST [2]: 5 (5=80-100%)
- ECHCG PRE [2]: 5 (5=80-100%)
- LOLPE POST (Lolium perenne (LOLPE)): 5 (5=80-100%)
- LOLPE PRE (Lolium perenne (LOLPE)): 5 (5=80-100%)
- SETFA POST (Setaria faberi (SETFA)): 5 (5=80-100%)
- SETFA PRE (Setaria faberi (SETFA)): 5 (5=80-100%)

SMILES: Cc1cc(-c2ccc(F)cc2)cc(C)c1C1C(=O)CC2(CCN(C(=O)C3CC3)CC2)CC1=O [Compound A59]
- ALOMY PRE [1]: 5 (5=80-100%)
- AVEFA POST (Avena fatua (AVEFA)): 5 (5=80-100%)
- AVEFA PRE (Avena fatua (AVEFA)): 5 (5=80-100%)
- ECHCG POST [2]: 5 (5=80-100%)
- ECHCG PRE [2]: 5 (5=80-100%)
- LOLPE POST (Lolium perenne (LOLPE)): 5 (5=80-100%)
- LOLPE PRE (Lolium perenne (LOLPE)): 5 (5=80-100%)
- SETFA POST (Setaria faberi (SETFA)): 5 (5=80-100%)
- SETFA PRE (Setaria faberi (SETFA)): 5 (5=80-100%)

SMILES: Cc1cc(-c2ccc(F)cc2)cc(C)c1C1C(=O)CC2(CCN(C(=O)C(F)F)CC2)CC1=O [Compound A60]
- ALOMY PRE [1]: 5 (5=80-100%)
- AVEFA POST (Avena fatua (AVEFA)): 5 (5=80-100%)
- AVEFA PRE (Avena fatua (AVEFA)): 5 (5=80-100%)
- ECHCG POST [2]: 5 (5=80-100%)
- ECHCG PRE [2]: 5 (5=80-100%)
- LOLPE POST (Lolium perenne (LOLPE)): 5 (5=80-100%)
- LOLPE PRE (Lolium perenne (LOLPE)): 5 (5=80-100%)
- SETFA POST (Setaria faberi (SETFA)): 5 (5=80-100%)
- SETFA PRE (Setaria faberi (SETFA)): 5 (5=80-100%)

SMILES: Cc1cc(-c2ccc(F)cc2)cc(C)c1C1C(=O)CC2(CCN(C(=O)C(C)(C)C)CC2)CC1=O [Compound A61]
- ALOMY PRE [1]: 5 (5=80-100%)
- AVEFA POST (Avena fatua (AVEFA)): 4 (4=60-79%)
- AVEFA PRE (Avena fatua (AVEFA)): 2 (2=20-39%)
- ECHCG POST [2]: 5 (5=80-100%)
- ECHCG PRE [2]: 5 (5=80-100%)
- LOLPE POST (Lolium perenne (LOLPE)): 5 (5=80-100%)
- LOLPE PRE (Lolium perenne (LOLPE)): 5 (5=80-100%)
- SETFA POST (Setaria faberi (SETFA)): 5 (5=80-100%)
- SETFA PRE (Setaria faberi (SETFA)): 5 (5=80-100%)
